Reference: patent US20220227761A1, “OXOACRIDINYL ACETIC ACID DERIVATIVES AND METHODS OF USE” (STINGTHERA, INC., priority 2019, published 2022)

How the values were obtained:
[1] = target: T1, mouse STING protein (139-328) (Mus musculus, UniProt Q3TBT3); assay: Radiometric filtration binding competition assay (FBA), mSTING
T1 sequence (Q3TBT3 139-328): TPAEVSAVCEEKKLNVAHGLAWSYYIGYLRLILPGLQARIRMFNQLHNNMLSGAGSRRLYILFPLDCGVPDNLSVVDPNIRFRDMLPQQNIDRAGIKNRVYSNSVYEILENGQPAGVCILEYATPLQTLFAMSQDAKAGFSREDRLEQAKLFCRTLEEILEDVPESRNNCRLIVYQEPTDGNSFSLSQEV

hSTING-R232 (aa140-379) = hSTING-R232 (aa140-379) (Homo sapiens, UniProt Q86WV6, H232R); assay: STING differential scanning fluorimetry (DSF) assay, hSTING WT; conditions: shift in melting temperature apo vs ligand-bound
Sequence of hSTING-R232 (aa140-379) (Q86WV6 140-379 H232R): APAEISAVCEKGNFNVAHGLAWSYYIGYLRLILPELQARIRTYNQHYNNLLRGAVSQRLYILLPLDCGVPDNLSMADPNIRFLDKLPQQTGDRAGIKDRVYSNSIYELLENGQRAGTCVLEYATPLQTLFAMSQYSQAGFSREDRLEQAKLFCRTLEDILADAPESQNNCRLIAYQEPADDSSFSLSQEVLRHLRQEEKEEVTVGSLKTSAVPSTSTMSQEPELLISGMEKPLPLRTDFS
Protocol: A STING DSF assay was performed to determine protein thermostability shift in response to small molecule ligand binding. A STING thermnostability shift assay based on differential scanning fluorimetry was used to measure (1) the net shift in melting temperature (ΔTm) between the apo and ligand-bound states of the STING protein and (2) the concentration of the thermal denaturation transition (EC50) as a surrogate measure of binding affinity (Kd). […] Protein in assay buffer was transferred to a 384 well plate and incubated with the hydrophobic fluorescent dye SYBR Orange. A temperature ramp was applied to the plate and the resulting dye fluorescence was plotted as a function of temperature. The first derivative of this function (dF/dT) was then used to extrapolate the melting temperature of the protein at various concentrations of compound and determine the thermal denaturation profile of a protein/compound complex.
5 μM purified Target STING Protein • 3. 8 μM Sypro Orange Dye • 4. Buffer: 100 mM NaCl, 30 mM HEPES, pH 7.5 • 5. Thermal Ramp: 0.5° C./min • 6. <1% DMSO • 7. 11 point, 2 fold dilution, duplicate, 300 μM high concentrations • 8.

[2] = system: STING protein; IRF/IFN signaling in THP-1 R232 cells; assay: Cell based reporter assay, THP-1 R232 IRF-luc; conditions: Homo sapiens, THP1-dual-KI R232 cells, IRF luciferase reporter; for Emax: maximum measured activity, read-out: THP 1-dual-KI R232_IRF(Luciferase)_Activity Maximum measured (%); for IC50: read-out: THP 1-dual-KI R232_IRF(Luciferase) IC50
Text: Cell reporter assays were developed to measure the ability of compounds of the application to activate the STING protein and activate both IRF/IFN and the NFkB signaling pathways in the myeloid derived cell line THP-1, which is commercially available from several suppliers. Briefly, THP-1 monocytes were transfected and selected for stable integration of 2 reporter constructs. Clones incorporating stably integrated vectors were further selected by antibiotic resistance to blastocidin and zeocin. The reporter constructs included: (1) firefly luciferase reporter gene under the control of an ISG54 promoter fused to five interferon (IFN)-stimulated response elements to measure IRF transcription factor binding activity and (2) secreted embryonic alkaline phosphatase reporter gene under transcription control of an IFN-beta minimal promoter fused to 5 copies of the NFkB consensus transcriptional response element and 3 copies of the c-Rel binding site.
The resulting THP-1 cell line was further modified to incorporate 3 amino acid point mutations (H71R A230G Q293R). This modification of the native TMEM173 gene in THP-1 cells (HAQ) was designed to produce a cell reporter that expressed the most common allelic variant in the human population (THP-1 R232, available from InvivoGen). Alternatively, the TMEM173 gene was knocked out to provide a congenic control to counter-screen for compound activation that was independent of the STING protein (THP-1 STING KO).
Once cell lines were established, reporter assay protocols were developed and optimized to screen small molecule compounds for agonist activity. Assay optimization for efficacy and Z′ value included titration of the following parameters:
• 1. Cell pre-activation with PMA • 2. Cell seeding density • 3. DMSO tolerance • 4. Media selection • 5. FBS concentration • 6. Incubation time • 7. Co-Assessment of cell viability by CTG assay • 8. Appropriate HPE and ZPE controls • 9. Dose Response Titration
• 1. No pre-activation with PMA • 2. 5×10^4 cells/well in 96 well plate format • 3. <0.5% DMSO • 4. RPMI 1640+2.5 mg/ml glucose • 5. 10% FBS • 6. 14-18 hr incubation • 7. Cell Titer Glo reagent (Promega) following supernatant removal • 8. […] 8 point, 2 fold, duplicate starting at 150 μM

[3] = target: human STING protein (140-379), WT (Homo sapiens, UniProt Q86WV6, H232R); assay: Radiometric filtration binding competition assay (FBA), hSTING-WT; conditions: WT-hSWAT IC50 (μM), WT_FBA_HIS-SUMO-hSWAT; wild-type human STING; competition with [H3] 2′3′cGAMP
Sequence of human STING protein (140-379), WT (Q86WV6 140-379 H232R): as above

IC50 [1] [µM]	WT_DSF_hSWAT Tm Shift (° C.) (hSTING-R232 (aa140-379))	IC50 [2] [µM]	IC50 [3] [µM]	SMILES	Emax [2] [%]
< 20	D (“D” >7° C.)	< 50	< 20	CN(C)c1c(Cl)ccc2c(=O)c3ccc(C(C)(C)C)cc3n(CC(=O)NS(C)(=O)=O)c12 [Compound 57]	> 50
> 300	B (“B” = 0-2° C.)	50 to 100	20 to 100	Cc1ccccc1-c1c(Cl)ccc2c(=O)c3ccccc3n(CC(=O)O)c12 [Compound 59]	5 to 25
20 to 100	D (“D” >7° C.)	> 150	20 to 100	O=C(O)Cn1c2ccccc2c(=O)c2ccc(Cl)c(-c3cccs3)c21 [Compound 62]	25 to 50
20 to 100	D (“D” >7° C.)	< 50	20 to 100	Cc1ccc2c(=O)c3ccc(Cl)c(N4CCCC4)c3n(CC(=O)O)c2c1 [Compound 64]	> 50
–	D (“D” >7° C.)	< 50	< 20	COc1ccccc1Nc1ccc2c(=O)c3ccc(Cl)c(N(C)C)c3n(CC(=O)O)c2c1 [Compound 90]	> 50
–	D (“D” >7° C.)	< 50	< 20	CN(C)c1c(Cl)ccc2c(=O)c3cc(Cl)c(Nc4ccccc4)cc3n(CC(=O)O)c12 [Compound 91]	> 50
–	D (“D” >7° C.)	< 50	< 20	CN(C)c1c(Cl)ccc2c(=O)c3ccc(Nc4c(F)cccc4F)cc3n(CC(=O)O)c12 [Compound 92]	> 50
